Measured values reported in paper PMC7312375, “A Novel, Pan-PDE Inhibitor Exerts Anti-Fibrotic Effects in Human Lung Fibroblasts via Inhibition of TGF-β Signaling and Activation of cAMP/PKA Signaling” (International Journal of Molecular Sciences, 2020).
Each block holds one compound with its values, some of them ahead of it.

Key:
[1] = tested on: MRC-5 cells; assay: Intracellular calcium measurements (Fluo-4); type: cell-based, human; details: 10 µM, acute application
Method: MRC-5 cells were briefly washed with NaHEPES buffer (NaHEPES buffer was prepared as follows: NaCl 140 mM, KCl 4.7 mM, HEPES 10 mM, MgCl2 1 mM, glucose 10 mM; pH 7.3) and then loaded with 1 µM Fluo-4 AM (Thermo Fisher Scientific, Waltham, MA, USA) for 1 h, 37 °C in NaHEPES. After the incubation, the cells were washed again with fresh NaHEPES and used for experiments in a flow chamber perfused with NaHEPES-based extracellular solution supplemented with 1 mM CaCl2. All experiments were carried out at room temperature using Zeiss LSM 880 confocal microscope (40× oil objective), excitation was set to 488 nm, and the emission was between 500 and 600 nm. Each series of images was recorded at 256 × 256-pixel resolution, two consecutive frames were averaged, and the interval between the averaged images was set at 2 s. Fluorescence signals were plotted as F/F0, where F0 was baseline fluorescence defined as the averaged signal from ten consecutive baseline images.

[2] = tested on: MRC-5 cells; assay: FBS-induced MRC-5 proliferation, alamarBlue assay; type: cell-based, human; details: for inhibition at 50 µM: Homo sapiens, MRC5, read-out: inhibition of FBS-induced MRC-5 proliferation rate; for MRC-5 proliferation [% of control]: Table S1 (Figure 2B), 48 h with FBS
Method: The normal human lung fibroblast cell line—MRC-5 (ATCC® CCL-171™, Manassas, VA, USA)—was used in the study. Cells were cultured in Eagle’s Minimum Essential Medium (EMEM, ATCC® 30-2003™, Manassas, VA, USA) supplemented with 10% (v/v) fetal bovine serum (FBS; Gibco, Thermo Fisher Scientific, Waltham, MA, USA) and antibiotics mixture (penicillin, streptomycin, amphotericin B; Gibco, Thermo Fisher Scientific, Waltham, MA, USA) (standard culture medium) in standard culture conditions (5% CO2, 37 °C, 95% humidity). Unless otherwise specified, for the experiments, cells were seeded at a final density (5 × 10^3/cm^2) in standard culture medium for 24 h and then cultured in EMEM at reduced serum content (0.5%; v/v) for additional 24 h. TGF-β1 (BD Biosciences, San Jose, CA, USA) was administered at 5 ng/mL concentration in all experiments.
MRC-5 cell viability was evaluated using CytoTox-ONE™ Homogeneous Membrane Integrity Assay (Promega Corporation, Madison, WI, USA) according to the manufacturer’s protocol. The average fluorescence intensity with an excitation wavelength of 560 nm and an emission wavelength of 590 nm was measured using a microplate reader (SpectraMax® iD3, Molecular Devices, San Jose, CA, USA). Experiments were run three times in duplicates. MRC-5 proliferation was determined using the alamarBlue® assay. Cells were seeded for 24 h in standard culture medium, then serum-starved for an additional three days. Evaluated compounds (1-50 µM) were added 1 h prior FBS (10%, v/v) for an additional 48 h. After incubation, the alamarBlue® reagent (Invitrogen, Life Technologies, Carlsbad, CA, USA), dissolved in Hank’s Balanced Salt Solution (10% v/v; Gibco, Thermo Fisher Scientific, Waltham, MA, USA), was added for 30 min. After the observed color change, the supernatant was transferred to 96-well plates, and the absorbance was measured at 570 and 600 nm. The percent difference in reduction between treated and control cells was calculated according to the manufacturer’s protocol. The experiments were run three times in duplicates.

[3] = tested on: TGF-β1-induced MRC-5 cells; assay: Immunofluorescence count of α-SMA positive myofibroblasts; type: cell-based, human; details: 10 µM, 48 h TGF-β1 5 ng/mL
Method: (§1) For immunocytochemical labeling, MRC-5 cells were seeded on glass coverslips. Study compounds (10 µM) were added 1 h before TGF-β1 treatment, and analysis was performed after 1 h (p-Smad-2 and p-CREB detection) or 48 h (α-SMA detection) of incubation. Cells were fixed in methanol or 4% formaldehyde solution, permeabilized in 0.2% or 0.1% Triton X-100 solution (for p-Smad-2 and p-CREB or α-SMA, respectively). After incubation in blocking solution the following primary antibodies: rabbit polyclonal, anti-phospho-Smad-2 (Ser465, Ser467) antibody (#44-244G, Thermo Fisher Scientific, Waltham, MA, USA); rabbit polyclonal, anti-phospho-CREB1 (Ser133) antibody (#orb213775, Biorbyt, Cambridge, United Kingdom); mouse monoclonal, anti-α-SMA antibody (#MA5-11547, Thermo Fisher Scientific, Waltham, MA, USA) and secondary antibodies: goat anti-rabbit Alexa Fluor 546 conjugated antibody and goat anti-mouse Alexa Fluor 488 conjugated antibody (#A-11010 and #A-11001, respectively, Invitrogen, Carlsbad, CA, USA) were used. Nuclei were counterstained with Hoechst 33342 dye (Thermo Fisher Scientific, Waltham, MA, USA). Slides were mounted in ProLong™ Glass Antifade Mountant (Invitrogen, Carlsbad, CA, USA) and analyzed using Leica DMiL LED Fluo microscope (for α-SMA and p-CREB visualization, 40× objective) or Leica DMi8 with Thunder Imaging System (for p-Smad-2 visualization, 40× objective), all equipped with LAS-X Software (Leica Microsystems GmbH, Wetzlar, Germany). Experiments were run four times using five randomly selected fields of view, at the same fluorescent time exposure and in a blind-folded manner.

[4] = tested on: TGF-β1-induced MRC-5 cells; assay: Western blot of p-Smad-2; type: cell-based, human; details: 10 µM, 1 h pre-incubation, TGF-β1 5 ng/mL 1 h
Method: Western Blot analysis was performed according to a standard protocol. Briefly, MRC-5 cells were pre-incubated with the study compounds (10 µM) for 1 h, […] (RIPA Lysis and Extraction Buffer, Thermo Fisher Scientific, Waltham, MA, USA) and supplemented with protease inhibitor cocktail and phosphatase inhibitor cocktail (both from Sigma Aldrich, St. Louis, MO, USA). Equal amounts of protein (30 µg) were separated using 10% SDS-polyacrylamide gels and transferred onto polyvinylidene difluoride (PVDF) membranes (Thermo Fisher Scientific, Waltham, MA, USA). Then membranes were washed with Tris Buffered Saline with Tween 20 (TBST) buffer (150 mM NaCl, 50 mM Tris, 0.05% Tween 20), blocked with 5% skim milk in TBST and incubated overnight with the appropriate primary antibody: rabbit, polyclonal anti-SMAD2 antibody, dilution 1:250, #51-1300 and rabbit, polyclonal anti-phospho-SMAD2 (Ser465, Ser467) antibody, dilution 1:500, #44-244G (both from Thermo Fisher Scientific, Waltham, MA, USA); rabbit, polyclonal anti-CREB1 antibody, dilution 1:500, #orb213777 and rabbit, polyclonal anti-phospho-CREB1 (Ser133) antibody, dilution 1:500, #orb213775 (both from Biorbyt LLC, San Francisco, CA, USA); mouse monoclonal anti-GAPDH antibody, dilution 1:5000, #G8795 (Sigma Aldrich, St. Louis, MO, USA). The next day, after gentle rising, membranes were exposed to secondary, rabbit anti-mouse IgG (whole molecule) peroxidase antibody (#A9044, dilution 1:3000, Sigma Aldrich, St. Louis, MO, USA) and goat anti-rabbit IgG (H+L) peroxidase-conjugated antibody (#32460, dilution 1:3000, Thermo Fisher Scientific, Waltham, MA, USA). Blots were visualized using a chemiluminescence method (Clarity Max™ Western ECL Substrate—Peroxide Solution, BioRad, Hercules, CA, USA) with a C-DiGit® Blot Scanner (LI-COR Biosciences, Lincoln, NE, USA). ROD was measured according to the NIH guidelines with Fiji ImageJ Software. The experiments were run four times.

[5] = target: T1, TRPA1 (Homo sapiens, UniProt O75762); assay: TRPA1 antagonist FLIPR assay (functional, HEK293 cell-based)
T1 construct: host or cells: HEK293
Method: The TRPA1 agonist and antagonist fluorescent imaging plate reader (FLIPR) Assay (functional, HEK293 cell-based) was performed at Eurofins Panlabs, Inc. (St. Charles, MO, USA). The compounds were prepared in assay buffer to the final dilutions 10 and 50 µM. In each experiment, the respective reference compounds were tested: allyl isothiocyanate (the agonist assay) and ruthenium red (the antagonist assay). The […] assays were conducted on a FLIPR^TETRA instrument where the test compounds, vehicle controls, and reference agonists or antagonists were added to the assay plate after a fluorescence baseline was established. The agonist or antagonist incubation during the assay was for a total of 180 s and was used to assess each compound’s ability to activate or inactivate TRPA1. All plates were subjected to appropriate baseline corrections. Once baseline corrections were processed, maximum fluorescence values were exported, and data was manipulated to calculate percentage activation or percentage inhibition. Results showing activity greater than 25% were considered to represent significant effects of test compounds. Experiments were run three times, […].

[6] = tested on: TGF-β1-induced MRC-5 cells; assay: Protein kinase A activity; type: cell-based, human; details: 10 µM 30 min, then TGF-β1 30 min
Method: Protein Kinase A (PKA) activity in MRC-5 cells was determined using a PKA Colorimetric Activity Kit (Invitrogen, Carlsbad, CA, USA) according to the manufacturer’s protocol. MRC-5 cells were seeded in standard culture medium, and after 48 h they were serum-starved for 2 h in HBSS, followed by the addition of study compounds (10 µM) and incubation for 30 min. Finally, TGF-β1 was administered, and the samples were incubated for an additional 30 min. Whole cell lysates were used in the assay. The amount of PKA was normalized to the total protein content in each sample. The experiments were run two times in duplicates.

[7] = tested on: TGF-β1-induced MRC-5 cells; assay: Immunofluorescence, nuclear localization of p-CREB; type: cell-based, human; details: 10 µM
Method: as §1

T1 sequence (O75762 whole entry, species assumed): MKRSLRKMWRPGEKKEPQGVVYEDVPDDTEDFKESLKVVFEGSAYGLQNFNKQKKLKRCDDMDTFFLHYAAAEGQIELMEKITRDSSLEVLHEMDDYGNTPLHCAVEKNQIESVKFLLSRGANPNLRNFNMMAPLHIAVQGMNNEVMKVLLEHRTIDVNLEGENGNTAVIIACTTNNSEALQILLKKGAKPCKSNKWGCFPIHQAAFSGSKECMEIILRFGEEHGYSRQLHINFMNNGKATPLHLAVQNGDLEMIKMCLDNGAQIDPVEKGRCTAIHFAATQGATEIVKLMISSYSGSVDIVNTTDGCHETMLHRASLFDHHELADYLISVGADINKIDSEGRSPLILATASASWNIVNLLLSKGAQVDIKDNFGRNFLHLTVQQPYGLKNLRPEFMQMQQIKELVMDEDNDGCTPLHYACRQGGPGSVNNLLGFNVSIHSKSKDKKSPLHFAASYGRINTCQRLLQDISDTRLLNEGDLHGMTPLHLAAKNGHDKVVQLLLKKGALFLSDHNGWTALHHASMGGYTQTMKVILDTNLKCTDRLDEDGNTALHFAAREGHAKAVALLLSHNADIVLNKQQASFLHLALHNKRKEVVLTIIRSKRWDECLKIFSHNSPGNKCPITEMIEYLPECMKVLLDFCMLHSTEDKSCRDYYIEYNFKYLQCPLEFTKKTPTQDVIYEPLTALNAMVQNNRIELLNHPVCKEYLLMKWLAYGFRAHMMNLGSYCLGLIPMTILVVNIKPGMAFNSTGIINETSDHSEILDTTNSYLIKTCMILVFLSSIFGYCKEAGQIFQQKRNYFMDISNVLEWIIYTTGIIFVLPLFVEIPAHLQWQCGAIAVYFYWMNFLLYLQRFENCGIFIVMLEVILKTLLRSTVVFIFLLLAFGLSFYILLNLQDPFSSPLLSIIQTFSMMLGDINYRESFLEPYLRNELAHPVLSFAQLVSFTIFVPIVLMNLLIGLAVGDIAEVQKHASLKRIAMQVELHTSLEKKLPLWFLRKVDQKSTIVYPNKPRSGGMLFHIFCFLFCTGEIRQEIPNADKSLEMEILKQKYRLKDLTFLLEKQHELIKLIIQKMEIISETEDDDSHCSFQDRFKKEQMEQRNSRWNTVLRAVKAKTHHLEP

SMILES: CC(C)CN1C(=O)/C(=C/C(=O)O)c2cccc(F)c21 [ASP 7663, (E)-2-(7-fluoro-1-isobutyl-2-oxoindolin-3-ylidene)acetic acid, reference compound]
- increase in average Ca2+ response area over baseline [1]: 10 fold
- inhibition at 50 µM ([2]; 50 µM): 14%
- MRC-5 proliferation [% of control] ([2]; 1 µM): 99 % of control
- MRC-5 proliferation [% of control] ([2]; 5 µM): 97 % of control
- MRC-5 proliferation [% of control] ([2]; 10 µM): 96 % of control
- MRC-5 proliferation [% of control] ([2]; 15 µM): 92 % of control
- MRC-5 proliferation [% of control] ([2]; 20 µM): 89 % of control
- MRC-5 proliferation [% of control] ([2]; 50 µM): 86 % of control

- TRPA1 Inhibition (% of control) ([5]; 10 µM): 91.8 % of control
- TRPA1 Inhibition (% of control) ([5]; 50 µM): 98.8 % of control
SMILES: CC(C)c1ccc(NC(=O)Cn2cnc3c2c(=O)n(C)c(=O)n3C)cc1 [HC-030031, 2-(1,3-dimethyl-2,6-dioxo-1,2,3,6-tetrahydro-7H-purin-7-yl)-N-(4-isopropylphenyl)acetamide, reference compound]
- number of myofibroblasts (MRC-5 with α-SMA-positive stress fibers); fibroblast to myofibroblast transition [3]: did not show any significant effect
- TGF-β1-induced Smad-2 phosphorylation (immunoblot) [4]: no differences
- Protein kinase A activity in TGF-β1-induced fibroblasts [6]: no significant change
- elevation of fraction of MRC-5 cells with nuclear p-CREB localization [7]: only a slight increase
- inhibition at 50 µM ([2]; 50 µM): 15%
- MRC-5 proliferation [% of control] ([2]; 1 µM): 98 % of control
- MRC-5 proliferation [% of control] ([2]; 5 µM): 96 % of control
- MRC-5 proliferation [% of control] ([2]; 10 µM): 95 % of control
- MRC-5 proliferation [% of control] ([2]; 15 µM): 90 % of control
- MRC-5 proliferation [% of control] ([2]; 20 µM): 90 % of control
- MRC-5 proliferation [% of control] ([2]; 50 µM): 85 % of control
